Patent EP1247803A2, “Indolinone compounds suitable for modulation of protein kinases” (Sugen, Inc., priority 1996, dated 1998)

How the values were obtained:
MET = MET biochemical kinase assay; set-up: species or system human; concentration or dose not given beside the values
Summary of the method: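 Lysate-derived MET, or chimeric receptors, is immobilised on plates through an antibody to the human MET cytoplasmic region. Compounds are added along with kinase buffer supplying ATP and divalent metal ions, and receptor autophosphorylation is quantified by anti-phosphotyrosine ELISA.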

EGFR = biological target: T1, EGFR (Homo sapiens, UniProt P00533); experiment: EGFR ELISA assay (in vitro kinase activity, EGFR captured from A431 cell lysate); type: biochemical; set-up: concentration or dose not given beside the values
T1 construct: Add 7 ug A431 cell lysate per well (EGFR source); endogenous in cells; host or cells: A431
T1 sequence (P00533 25-1210): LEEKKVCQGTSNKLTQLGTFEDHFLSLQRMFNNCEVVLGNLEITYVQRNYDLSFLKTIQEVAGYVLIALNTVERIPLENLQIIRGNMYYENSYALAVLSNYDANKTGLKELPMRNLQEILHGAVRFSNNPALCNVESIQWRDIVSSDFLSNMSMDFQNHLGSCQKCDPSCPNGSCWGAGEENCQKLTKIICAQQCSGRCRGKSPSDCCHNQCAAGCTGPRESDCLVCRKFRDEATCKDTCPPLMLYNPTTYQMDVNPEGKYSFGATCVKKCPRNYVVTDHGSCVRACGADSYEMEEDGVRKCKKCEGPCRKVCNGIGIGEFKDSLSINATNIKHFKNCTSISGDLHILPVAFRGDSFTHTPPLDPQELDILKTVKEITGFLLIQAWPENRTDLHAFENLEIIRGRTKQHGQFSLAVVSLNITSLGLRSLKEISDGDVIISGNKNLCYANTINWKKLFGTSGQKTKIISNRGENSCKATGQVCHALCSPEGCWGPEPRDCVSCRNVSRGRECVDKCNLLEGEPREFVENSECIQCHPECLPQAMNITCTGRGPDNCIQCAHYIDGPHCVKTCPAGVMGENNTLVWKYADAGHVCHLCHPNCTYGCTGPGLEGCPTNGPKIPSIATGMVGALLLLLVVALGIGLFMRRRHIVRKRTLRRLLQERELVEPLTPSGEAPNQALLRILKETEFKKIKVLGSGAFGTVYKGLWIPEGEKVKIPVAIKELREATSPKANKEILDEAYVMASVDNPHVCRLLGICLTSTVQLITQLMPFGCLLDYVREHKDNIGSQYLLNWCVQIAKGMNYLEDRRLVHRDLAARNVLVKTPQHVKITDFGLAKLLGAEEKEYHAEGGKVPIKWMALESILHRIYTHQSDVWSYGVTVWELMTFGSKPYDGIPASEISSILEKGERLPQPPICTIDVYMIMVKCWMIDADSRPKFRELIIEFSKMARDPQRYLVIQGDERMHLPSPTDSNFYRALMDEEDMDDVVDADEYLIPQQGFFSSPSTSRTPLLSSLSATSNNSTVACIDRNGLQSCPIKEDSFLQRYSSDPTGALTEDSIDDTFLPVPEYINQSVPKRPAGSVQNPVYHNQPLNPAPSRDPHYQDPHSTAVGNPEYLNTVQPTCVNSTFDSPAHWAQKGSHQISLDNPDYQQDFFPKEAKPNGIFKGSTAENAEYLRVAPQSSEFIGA
Summary of the method: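 EGFR from A431 lysate was captured on anti-EGFR antibody-coated plates and preincubated with compounds for 30 min. Autophosphorylation ran 5 min with 3 uM ATP and 5 mM MnCl2 (final), stopped with 20 mM EDTA. Phosphotyrosine was detected by anti-pTyr ELISA with ABTS/H2O2, read at 410 nm.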

Row | SMILES | Met Kinase % Inhibition (MET) | Biochem EGFR %Inhibition (EGFR)
1 | CNS(=O)(=O)c1ccc2c(c1)C(=Cc1ccc([N+](=O)[O-])s1)C(=O)N2 [10722/D04] | 63.4% | 20.3%
2 | CNS(=O)(=O)c1ccc2c(c1)C(=Cc1cc(Br)c(O)c(C(C)(C)C)c1)C(=O)N2 [10721/D10] | 13.4% | 3.3%
3 | O=C1Nc2ccc(S(=O)(=O)N3CCOCC3)cc2C1=Cc1cc([N+](=O)[O-])cc(CCl)c1O [10721/F06] | 80.3% | 21.7%
4 | O=C1Nc2c(Br)cc(Br)cc2C1=Cc1ccc(F)cc1F [10722/A06] | 71.6% | 28.4%
5 | O=C1Nc2ccc(CCCl)cc2C1=Cc1cc([N+](=O)[O-])cc(CCl)c1O [10721/G06] | 39.5% | 23.2%
6 | O=C1Nc2ccc(S(=O)(=O)Nc3ccc(C(F)(F)F)cc3)cc2C1=Cc1ccc([N+](=O)[O-])s1 [10722/E04] | 52.6% | 1.4%
7 | CNS(=O)(=O)c1ccc2c(c1)C(=Cc1cccn1C)C(=O)N2 [10717/D04] | 21.0% | 4.9%
8 | CC(C)(C)c1cc(C=C2C(=O)Nc3ccc(CCCl)cc32)ccc1O [10721/G09] | 5.1% | 14.9%
9 | CCCCN(CCCC)c1ccc(C=C2C(=O)Nc3ccc(I)cc32)cc1 [10722/B10] | 56.4% | -11.3%
10 | O=C1Nc2ccc(S(=O)(=O)Nc3ccc(C(F)(F)F)cc3)cc2C1=Cc1c(O)cc(O)cc1O [10722/E03] | 88.4% | 33.0%
11 | Cc1cc(C)c(C=C2C(=O)Nc3ccc(S(=O)(=O)N4CCOCC4)cc32)[nH]1 [10721/F08] | 76.1% | 37.3%
12 | O=C1Nc2ccc(S(=O)(=O)Nc3ccc(C(F)(F)F)cc3)cc2C1=Cc1ccc(C(=O)O)cc1 [10722/E05] | 73.0% | -7.0%
13 | CC(C)(C)c1cc(C=C2C(=O)Nc3ccc(S(=O)(=O)Nc4ccc(C(F)(F)F)cc4)cc32)ccc1O [10721/E09] | 0.7% | 42.5%
14 | CNS(=O)(=O)c1ccc2c(c1)C(=Cc1cccs1)C(=O)N2 [10717/D03] | 11.1% | -1.4%
15 | O=C1Nc2ccc(I)cc2C1=Cc1c(O)cc(O)cc1O [10722/B03] | 40.1% | 19.6%
16 | CC(C)(C)c1cc(C=C2C(=O)Nc3ccc(S(=O)(=O)Nc4ccc(C(F)(F)F)cc4)cc32)cc(Br)c1O [10721/E10] | 55.7% | 19.9%
17 | Cn1cc(Cl)c(C=C2C(=O)Nc3ccc(S(=O)(=O)Nc4ccc(C(F)(F)F)cc4)cc32)n1 [10721/E03] | 12.3% | 25.1%
18 | CC(C)(C)c1cc(C=C2C(=O)Nc3ccc(S(=O)(=O)Nc4ccc(C(F)(F)F)cc4)cc32)cc(C(C)(C)C)c1O [10721/E11] | 31.3% | 32.1%
19 | O=C1Nc2ccc(S(=O)(=O)Nc3ccc(C(F)(F)F)cc3)cc2C1=Cc1cc2c([nH]1)CCCC2 [10721/E05] | 69.9% | 61.3%
20 | O=C1Nc2c(Br)cc(Br)cc2C1=Cc1ccc([N+](=O)[O-])s1 [10722/A04] | 51.4% | 21.0%
21 | CNS(=O)(=O)c1ccc2c(c1)C(=Cc1ccc(C(=O)O)cc1)C(=O)N2 [10722/D05] | 35.8% | -3.8%
22 | CNS(=O)(=O)c1ccc2c(c1)C(=Cc1ccc(Br)cc1)C(=O)N2 [10717/D08] | 16.0% | -7.8%
23 | Cn1c(C=C2C(=O)Nc3ccc(S(=O)(=O)N4CCOCC4)cc32)nc2ccccc21 [10721/F02] | 27.8% | 11.0%
